We go through 16 compounds from patent publication US11584727B2, “2-thioxothiazolidin-4-one derivatives active as transthyretin ligands and uses thereof” (BSIM Therapeutics, S.A., priority 2014, dated 2023).

Read-outs that look alike come from different tables or passages of the source.

Data set [1] has as its target T1, wild type transthyretin (WT-TTR) (Homo sapiens, UniProt P02766).
T1 construct: made in house; host or cells: E. coli BL21 (DE3), pET23a plasmid
Put plainly: WT-TTR amyloid fibril formation assay (turbidimetry, acid-induced). It is filed as biochemical. The settings on record: pH 4.4, 72 hours; for Fibril Formation (%): WT-TTR 3.6 μM, 1:1 TTR-compound stoichiometry, 37° C., normalized to no-compound control (100%); for IC50: WT-TTR fixed at 3.6 μM, ten compound concentrations; for inhibitory activity against TTR amyloid fibril formation compared with reference compounds (in words): TTR 3.6 μM. The method, then:
(§1) The first set of evaluations is based on a fast, stagnant fibril formation assay that is used for the early screening of compounds, be they virtual screening hits or newly synthesized analogues. In this assay, a solution of the compound under test at 1.8, 3.6 or 7.2 μM is added to a solution of TTR at 3.6 μM, so that there is enough compound to bind to either one or both of TTR's binding sites. The pH of the resulting solution is then lowered to 4.4 to promote amyloidogenesis. The process of amyloid fibril formation over time is assessed by turbidimetry measurements at three different wavelengths (405, 450 and 490 nm, or at 550, 600 and 650 nm when the compound absorbs light at the previous wavelengths), using a spectrophotometer endowed with a BioTek microplate reader. The extent of fibril formation of each mixture is determined by normalizing a sample with the protein (TTR), in absence of compounds, which, at the end of 72 hours, represents 100% of amyloid fibril formation. In each experiment, each compound concentration is tested in triplicate. For each compound concentration and incubation time, the arithmetic mean of the triplicate experiments is calculated, as well as the arithmetic mean of the three measured wavelengths. High activity can be defined as a percentage of fibril formation below 10% at compound concentration 7.2 μM (TTR:compound stoichiometry 1:2) and below 40% at 3.6 μM (TTR:compound stoichiometry 1:1).
The in vitro activity of the compounds was assessed through a biochemical assay based on turbidimetry measurements, in which fibril formation is induced by acidification of the solution to pH 4.4 after incubation with the hit compound to be tested. The amount of amyloid fibrils formed is then monitored throughout 72 hours. Further details on this assay are provided in the “Evaluation of amyloid inhibition in vitro” subsection in “Materials and Methods”.
Experimental evaluation of the in vitro activity of virtual screening hits against amyloid fibril formation by TTR was carried out using a biochemical assay based on turbidimetry measurements. In this assay, fibril formation is induced by acidification of the solution to pH 4.4 after incubation with the hit compound to be tested. The amount of amyloid fibrils formed is monitored over 72 hours. Further details on the assay are provided in the “Evaluation of amyloid inhibition in vitro” subsection below.
(§2) Purchased virtual screening hits and all synthesized (optimization) derivatives were dissolved in DMSO to a final concentration of 10.8 mM to provide a primary stock solution. Several secondary stock solutions were prepared in DMSO by dilution of the primary stock solution and the concentrations were chosen depending on the effectiveness of the compound in inhibiting the TTR amyloid fibril formation.
(§3) The fibril formation assay was adapted to run in a high-throughput screening mode. For this purpose, 96-well microplates were used with a final assay volume of 100 μL.
(§4) One microLitre (μL) of different compound secondary stock solutions was added to 50 μL of a 7.2 μM wild type TTR (WT-TTR) or Val122Ile-TTR (V122I-TTR) solutions in 10 miliMolar (mM) sodium phosphate buffer, 100 mM KCl and 1 mM EDTA, pH 7.2, previously dialyzed against the same buffer solution. After 30 minutes of incubation at room temperature, the pH of the mixture was lowered to 4.4 with 49 μL of 200 mM acetate buffer, 100 mM KCl and 1 mM EDTA, pH 4.3.
The mixtures were incubated at 37° C. during 72 hours. Turbidity at 405 nm, 450 nm and 490 nm (or at 550, 600 and 650 nm when the test compound absorbs light at the previous wavelengths) was measured over time (0, 17, 24, 41, 48, 65 and 72 hours) using a BioTek Microplate Spectrophotometer to evaluate the extent of fibril formation. Immediately before the turbidity measurements, the mixtures were gently shacked during 1 minute to homogenize well and not damage the formed amyloid aggregates and fibrils.

For data set [2], the target named is Val122Ile transthyretin (V122I-TTR) (Homo sapiens, UniProt P02766, V142I). In words: V122I-TTR amyloid fibril formation assay (turbidimetry, acid-induced). The format is biochemical. The conditions noted are these: pH 4.4, 72 hours; for Fibril Formation (%): V122I-TTR 3.6 μM, 37° C.; for IC50: V122I-TTR fixed at 3.6 μM, ten compound concentrations. The procedure: as §1, §2, §3, §4
The mixtures were incubated at 37° C. during 72 hours. Turbidity at 405 nm, 450 nm and 490 nm (or at 550, 600 and 650 nm when the test compound absorbs light at the previous wavelengths) was measured over time (0, 17, 24, 41, 48, 65 and 72 hours) using a BioTek Microplate Spectrophotometer to evaluate the extent of fibril formation. Immediately before the turbidity measurements, the mixtures were gently shacked during 1 minute to homogenize well and not damage the formed amyloid aggregates and fibrils. The final turbidity was calculated as an average of the three wavelengths measured.
In addition, control samples containing TTR with no inhibitor and 1% DMSO, as well as inhibitor in absence of TTR were tested and analyzed.
The extent of amyloid fibril formation data was normalized to TTR in the absence of inhibitor, assigned to be 100% fibril formation (or 0% amyloid inhibition) at the end of the experiment.
The extent of amyloid fibril formation throughout 72 hours was determined as described in the “Evaluation of amyloid inhibition in vitro” subsection above.
IC50 values were calculated from the inhibition curves obtained by fitting the values by a nonlinear curve method using the OriginPro7 (OriginLab Corporation, USA).

[3] abbreviates: read-out: IC50 (μM), concentration inhibiting WT-TTR amyloid fibril formation by 50%.

`COc1cc(/C=C2\SC(=S)N(CCC(=O)O)C2=O)cc(C)c1O` [AT50-C18, (Z)-5-(4′-hydroxy-3′-methoxy-5′-methylphenylmethylidene)-3-(2′-hydroxycarbonylethyl)-2-thioxothiazolidin-4-one] had a melting point of 194 to 196 °C. Further, the “Fibril Formation (%)” value in data set [1] was found to be 30%.

As for “(Z)-5-(3′-bromo-4′-hydroxy-5′-iodophenylmethylidene)-3-hydroxycarbonylmethyl-2,4-dioxothiazolidine [AT50-A51]”, the “Fibril Formation (%)” value in data set [1] amounted to 5%. The IC50 in data set [1] (setting [3]) turned out to be 1.07 ± 0.42 µM.

For the compound `COc1cc(/C=C2/SC(=S)N(CC(=O)O)C2=O)cc(Cl)c1O` [AT50-A00 (E), (E)-3-hydroxycarbonylmethyl-5-(3′-chloro-4′-hydroxy-5′-methoxyphenylmethylidene)-2-thioxothiazolidin-4-one], in data set [2], the “Fibril Formation (%)” value came out at 45% and the IC50 turned out to be 3.06 µM. Moreover, in data set [1], the “Fibril Formation (%)” value turned out to be 26% and the IC50 was determined as 1.73 ± 0.06 µM.

`Cc1cc(/C=C2\SC(=S)N(CC(=O)O)C2=O)cc(O)c1O` [AT50-A35, (Z)-5-(3′,4′-dihydroxy-5′-methylphenylmethylidene)-3-hydroxycarbonylmethyl-2-thioxothiazolidin-4-one] returned a melting point of 238 to 239 °C. Moreover, in data set [1], the “Fibril Formation (%)” value is given as 21% and the IC50 was found to be 2.23 µM.

`NC(Cc1cc(I)c(Oc2cc(I)c(O)c(I)c2)c(I)c1)C(=O)O` (stereo in doubt) [Thyroxine, (2S)-2-amino-3-[4-(4-hydroxy-3,5-diiodophenoxy)-3,5-diiodophenyl]propanoic acid, reference compound]: the “Fibril Formation (%)” value in data set [2] is given as 42%; in data set [1], 28%.

With `COc1cc(/C=C2\SC(=S)N(CC(=O)O)C2=O)cc(C)c1O` [AT50-A47, (Z)-3-hydroxycarbonylmethyl-5-(4′-hydroxy-3′-methoxy-5′-methylphenylmethylidene)-2-thioxothiazolidin-4-one], the melting point is 238 to 239 °C. For the same compound, in data set [1], the “Fibril Formation (%)” value came out at 21% and the IC50 stood at 2.05 µM.

On to `COc1cc(/C=C2\SC(=S)N([C@H](CC(C)C)C(=O)O)C2=O)cc(OC)c1O` [AT50-B01, (Z)-(1′S)-5-(4′-hydroxy-3′,5′-dimethoxyphenylmethylidene)-3-(1′-hydroxycarbonylisopentyl)-2-thioxothiazolidin-4-one], for which the “Fibril Formation (%)” value in data set [2] is 20%; in data set [1] it was 10%. For the same compound, the values for the IC50 in data set [2] and in data set [1] were 1.48 µM and 0.95 ± 0.45 µM, respectively.

As to `Oc1c(Cl)cc(-c2cc(Cl)c(O)c(Cl)c2)cc1Cl` [2OH- PCB80, 2,6-dichloro-4-(3,5-dichloro-4-oxidophenyl)benzen-1-olate, reference compound], the “Fibril Formation (%)” value amounted to 24% in data set [2] and 20% in data set [1]. For the same compound, the IC50 came out at 1.45 µM in data set [2] and 1.59 ± 0.27 µM in data set [1] (setting [3]).

Regarding `O=C(O)CC[C@@H](C(=O)O)N1C(=O)/C(=C/c2ccc(O)c(Br)c2)SC1=S` [AT50-C01, (Z)-(1′S)-5-(3′-bromo-4′-hydroxyphenylmethylidene)-3-(1′,3′-di(hydroxycarbonyl)propyl)-2-thioxothiazolidin-4-one], the “Fibril Formation (%)” value was 39% in data set [2] and 13% in data set [1]. Moreover, the values for the IC50 in data set [2] and in data set [1] were 2.66 µM and 1.38 ± 0.3 µM, respectively.

With “(Z)-5-(3′,5′-dichloro-4′-hydroxyphenylmethylidene)-3-hydroxycarbonylmethyl-2,4-dioxothiazolidine [AT50-A49]”, the “Fibril Formation (%)” value in data set [2] is recorded as 12%; in data set [1], 4%. The IC50 came out at 1.32 µM in data set [2] (read-out: IC50 (μM), concentration inhibiting V122I-TTR amyloid fibril formation by 50%) and 0.89 ± 0.15 µM in data set [1] (setting [3]).

`Cc1cc(/C=C2\SC(=S)N(CCC(=O)O)C2=O)cc(O)c1O` [AT50-C20, (Z)-5-(3′,4′-dihydroxy-5′-methylphenylmethylidene)-3-(2′-hydroxycarbonylethyl)-2-thioxothiazolidin-4-one] came in with a melting point of 221 to 222 °C. Besides, in data set [1], the “Fibril Formation (%)” value is reported as 39%.

Consider `O=C(O)CC[C@@H](C(=O)O)N1C(=O)/C(=C/c2c(Cl)cccc2Cl)SC1=S` [AT50-C00, (Z)-(1′S)-5-(2′,6′-dichlorophenylmethylidene)-3-(1′,3′-di(hydroxycarbonyl)propyl)-2-thioxothiazolidin-4-one], for which, in data set [1], the “inhibitory activity against TTR amyloid fibril formation compared with reference compounds (in words)” value was “superior to that of reference compounds Tafamidis”, the “Fibril Formation (%)” value was 26% and the IC50 came to 2.05 ± 0.04 µM.

For the compound `Cc1cc(/C=C2\SC(=S)N([C@@H](CCC(=O)O)C(=O)O)C2=O)cc(Cl)c1O` [AT50-C02, (Z)-(1′S)-5-(3′-chloro-4′-hydroxy-5′-methylphenylmethylidene)-3-(1′,3′-di(hydroxycarbonyl)propyl)-2-thioxothiazolidin-4-one], in data set [1], the “Fibril Formation (%)” value is 18% and the IC50 turned out to be 1.79 ± 0.13 µM.

For `O=C(O)CCN1C(=O)/C(=C/c2cc(O)c(O)c(Cl)c2)SC1=S` [AT50-C19, (Z)-5-(3′-chloro-4′,5′-dihydroxyphenylmethylidene)-3-(2′-hydroxycarbonylethyl)-2-thioxothiazolidin-4-one], the melting point fell in the range of 243 to 245 °C. Also, the “Fibril Formation (%)” value in data set [1] is 33%.

On to `COc1cccc(/C=C2\SC(=S)N(C(C)C(=O)O)C2=O)c1` (stereo not shown) [AT50-B00, (Z)-3-(1′-hydroxycarbonylethyl)-5-(3′-methoxyphenylmethylidene)-2-thioxothiazolidin-4-one], for which, in data set [1], the “inhibitory activity against TTR amyloid fibril formation compared with reference compounds (in words)” value is reported as “superior to that of reference compounds Tafamidis”, the “Fibril Formation (%)” value amounted to 35% and the IC50 was determined as 2.38 ± 0.17 µM.

For the compound `O=C(O)CN1C(=O)/C(=C/c2cc(Br)c(O)c(Br)c2)SC1=S` [AT50-A50, (Z)-5-(3′,5′-dibromo-4′-hydroxyphenylmethylidene)-3-hydroxycarbonylmethyl-2-thioxothiazolidin-4-one], in data set [1], the “Fibril Formation (%)” value is reported as 8% and the IC50 worked out at 0.9 µM.

For orientation: melting point means the temperature of the solid-liquid transition.
